In ChEMBL document CHEMBL5046251, “Discovery of a Series of Pyrimidine Carboxamides as Inhibitors of Vanin-1” (J Med Chem, 2022):
Activity calls are given as the source filed them. The calls are words filed in the database; no cut-off is given here.

How the values were obtained:
Pantetheinase [1] = biological target: T1, Pantetheinase (Homo sapiens, UniProt O95497); test: Inhibition of recombinant N-terminal FLAG/His6-tagged human vanin-1 expressed in CHO cells using Pantetheine-7-amino-4-trifluoromethykournarin as substrate preincubated for 30 mins followed by substrate addition and measured after 60 mins
T1 sequence (O95497 whole entry): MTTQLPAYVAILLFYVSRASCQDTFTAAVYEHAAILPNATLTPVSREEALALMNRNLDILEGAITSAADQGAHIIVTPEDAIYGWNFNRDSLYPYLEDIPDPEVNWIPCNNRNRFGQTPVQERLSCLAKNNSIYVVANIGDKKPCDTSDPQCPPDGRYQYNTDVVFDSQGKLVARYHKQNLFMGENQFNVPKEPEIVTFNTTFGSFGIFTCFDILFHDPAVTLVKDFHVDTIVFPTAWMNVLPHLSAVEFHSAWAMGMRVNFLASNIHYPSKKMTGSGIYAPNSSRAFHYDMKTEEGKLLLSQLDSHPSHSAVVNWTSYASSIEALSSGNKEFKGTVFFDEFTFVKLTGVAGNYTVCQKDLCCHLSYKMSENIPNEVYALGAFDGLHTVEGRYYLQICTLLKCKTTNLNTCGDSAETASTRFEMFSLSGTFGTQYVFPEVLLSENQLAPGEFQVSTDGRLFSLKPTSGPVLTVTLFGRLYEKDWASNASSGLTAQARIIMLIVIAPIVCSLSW

[2] = Intrinsic clearance in human liver microsomes; assay type: ADME, Microsome
[3] = Apparent permeability across apical to basolateral side in RRCK cells; conditions: dog, MDCK
[4] = Lipophilicity, log D of the compound in Octanol/buffer by shake-flask method
Biotinidase = biological target: T2, Biotinidase (Homo sapiens, UniProt P43251); test: Inhibition of N-terminal FLAG/His6-tagged human biotinidase expressed in COS cells using biotinyl-7-amino-4-trifluoromethylcoumarin as substrate preincubated for 10 mins followed by substrate addition and measured after 90 mins; assay type: cell-based
T2 sequence (P43251 whole entry): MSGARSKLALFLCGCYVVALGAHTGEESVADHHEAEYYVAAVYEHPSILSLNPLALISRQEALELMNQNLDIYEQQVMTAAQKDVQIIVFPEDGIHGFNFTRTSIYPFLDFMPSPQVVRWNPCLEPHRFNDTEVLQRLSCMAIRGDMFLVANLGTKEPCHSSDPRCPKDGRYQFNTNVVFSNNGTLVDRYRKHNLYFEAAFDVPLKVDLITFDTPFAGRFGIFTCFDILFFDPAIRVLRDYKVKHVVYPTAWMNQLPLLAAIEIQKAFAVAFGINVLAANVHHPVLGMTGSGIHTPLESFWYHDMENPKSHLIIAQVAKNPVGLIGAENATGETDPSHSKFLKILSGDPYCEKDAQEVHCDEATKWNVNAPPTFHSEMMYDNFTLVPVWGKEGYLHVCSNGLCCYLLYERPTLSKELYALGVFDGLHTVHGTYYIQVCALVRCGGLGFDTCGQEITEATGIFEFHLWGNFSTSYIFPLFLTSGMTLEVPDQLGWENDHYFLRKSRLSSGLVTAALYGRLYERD

[5] = biological target: T3, Pantetheinase (Homo sapiens) (UniProt O95497); test: Binding affinity to recombinant N-terminal FLAG/His6-tagged human vanin-1 expressed in CHO cells assessed as binding constant (Kon) by surface plasmon resonance analysis
T3 sequence (whole entry): T1 sequence (O95497 whole entry)

Pantetheinase [6] = biological target: T1, Pantetheinase; test: Binding affinity to recombinant N-terminal FLAG/His6-tagged human vanin-1 expressed in CHO cells assessed as dissociation constant by surface plasmon resonance analysis
[7] = biological target: T3, Pantetheinase (Homo sapiens); test: Binding affinity to recombinant N-terminal FLAG/His6-tagged human vanin-1 expressed in CHO cells assessed as binding constant (Koff) by surface plasmon resonance analysis
[8] = biological target: T3, Pantetheinase (Homo sapiens); test: Binding affinity to recombinant N-terminal FLAG/His6-tagged human vanin-1 expressed in CHO cells assessed as dissociative half life by surface plasmon resonance analysis
Pantetheinase [9] = biological target: T1, Pantetheinase; test: Inhibition of recombinant N-terminal FLAG/His6-tagged human vanin-1 expressed in CHO cells at 10 uM by 1H NMR analysis; assay type: cell-based
Pantetheinase [10] = biological target: T4, Pantetheinase (Mus musculus, UniProt Q9Z0K8); test: Inhibition of mouse vanin-1
T4 sequence (Q9Z0K8 whole entry): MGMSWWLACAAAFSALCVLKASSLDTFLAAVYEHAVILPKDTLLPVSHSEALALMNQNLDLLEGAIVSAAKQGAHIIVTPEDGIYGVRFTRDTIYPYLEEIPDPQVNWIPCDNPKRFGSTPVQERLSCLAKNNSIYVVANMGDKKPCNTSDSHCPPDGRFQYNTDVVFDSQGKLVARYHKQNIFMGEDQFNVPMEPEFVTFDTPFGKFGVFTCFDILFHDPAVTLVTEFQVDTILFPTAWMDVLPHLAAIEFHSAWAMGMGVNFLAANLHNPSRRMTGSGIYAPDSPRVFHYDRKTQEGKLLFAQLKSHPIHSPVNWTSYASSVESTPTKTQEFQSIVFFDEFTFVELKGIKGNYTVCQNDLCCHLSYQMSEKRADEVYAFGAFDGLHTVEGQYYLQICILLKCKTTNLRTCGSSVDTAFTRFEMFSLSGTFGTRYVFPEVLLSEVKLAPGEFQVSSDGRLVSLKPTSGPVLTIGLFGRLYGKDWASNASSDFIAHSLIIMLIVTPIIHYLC

Pantetheinase [11] = biological target: T1, Pantetheinase; test: Inhibition of human plasma vanin-1 using pantetheine-7-amino-4-trifluoromethykournarin as substrate preincubated for 30 mins followed by substrate addition; assay type: cell-free
[12] = Intrinsic clearance in human hepatocytes assessed per million cells; assay type: ADME, cell-based, Hepatocyte
[13] = Intrinsic clearance in rat hepatocytes assessed per million cells; assay type: ADME, cell-based, Hepatocyte
[14] = Intrinsic clearance in human hepatocytes assessed per million cells by relay assay method; assay type: ADME, cell-based, Hepatocyte
Mus musculus [15] = test: Anti-colitis activity against DSS-induced BALB/c mouse model assessed as increase in body weight at 100 mg/kg, po administered for 5 to 14 days; assay type: functional, organism-based; conditions: time 5-14 day
Mus musculus [16] = test: Anti-colitis activity against DSS-induced BALB/c mouse model assessed as reduction in disease activity index at 100 mg/kg, po administered for 5 to 14 days; assay type: functional, organism-based; conditions: time 5-14 day
Mus musculus [17] = test: Anti-colitis activity against DSS-induced colitis BALB/c mouse model assessed as effect on colon length at 100 mg/kg, po measured after 14 days; assay type: functional, organism-based; conditions: time 14.0 day

IC50 (Pantetheinase [1]) [nM] | Intrinsic clearance [2] [µL/min/mg] | Papp A→B [3] [×10⁻⁶ cm/s] | logD [4] | IC50 (Biotinidase) [nM] | SMILES | other results
0.08 | 15 | 4 | 0.5 | 1900 | CC(C)(Nc1ncc(C(=O)N2CCC3(CCOCC3)C2)cn1)c1cncnc1 | –
4.4 | 38 | 28 | 2 | – | N#Cc1cccc(C(=O)c2cnc(NCc3cccnc3)nc2)c1 | –
1200 | – | – | – | – | N#C[C@H]1CCCN(C(=O)c2cnc(NC3(c4cncnc4)CC3)nc2)C1 | –
0.04 | 19 | 17 | 0.8 | – | O=C(c1cnc(NC2(c3cnccn3)CCC2)nc1)N1CC2(CCOCC2)C1 | –
– | < 8 | 6 | 0.2 | > 50000 | C[C@@H](Nc1ncc(C(=O)N2CCC3(CCOCC3)C2)cn1)c1cncnc1 | –
10.6 | < 8 | 0.6 | -1 | 62000 | CS(=O)(=O)[C@@H]1CCCN(C(=O)c2cnc(NC3(c4cncnc4)CC3)nc2)C1 | –
– | < 8 | 2 | -2 | – | O=C(c1cnc(NC2(c3cnccn3)COC2)nc1)N1CCC2(CCOCC2)C1 | –
– | 14.5 | 24 | 2.2 | – | O=C(c1cnc(NCc2cccnc2)nc1)c1cccs1 | –
– | < 8 | 11 | 1 | > 50000 | C[C@@H](Nc1ncc(C(=O)N2CCC3(CCOCC3)C2)cn1)c1cnccn1 | –
52 | 51 | 17 | 2.9 | – | Cc1cccc(C(=O)c2cnc(NCc3cccnc3)nc2)c1 | –
– | < 8 | 7 | 2 | – | C[C@H](Nc1ncc(C(=O)N2CCC3(CCOCC3)C2)cn1)c1cncnc1 | –
203 | < 8 | 0.9 | -0.8 | > 13000 | CS(=O)(=O)C1CCCN(C(=O)c2cnc(NC3(c4cncnc4)CC3)nc2)C1 (racemic) | K [5]: 4.1 10^5/M/s; Kd (Pantetheinase [6]): 37 nM; K [7]: 0.0088 s⁻¹; T1/2 [8]: 79 s; IC50 (Pantetheinase [9]): 122 nM
0.04 | 14 | 12 | 1 | 8900 | O=C(c1cnc(NC2(c3cnccn3)CCC2)nc1)N1CCC2(CCOCC2)C1 | –
– | < 8 | 6 | 0.7 | 11300 | O=C(c1cnc(NCc2cccnc2)nc1)N1CCC2(CCOCC2)C1 | –
– | 26 | 23 | 3 | – | N#Cc1cccc(C(=O)c2cnc(NC3(c4ccccc4)CC3)nc2)c1 | –
– | 12 | 3 | 0 | 11000 | O=C(c1cnc(NCc2cncnc2)nc1)N1CCC2(CCOCC2)C1 | –
10.4 | < 11 | 1.5 | -0.3 | 53000 | N#CC1CCCN(C(=O)c2cnc(NC3(c4cncnc4)CC3)nc2)C1 (racemic) | K [5]: 6 10^6/M/s; Kd (Pantetheinase [6]): 7.2 nM; K [7]: 0.026 s⁻¹; T1/2 [8]: 26 s; IC50 (Pantetheinase [9]): 45 nM
– | 48 | 19 | 3 | – | N#Cc1cccc(C(=O)c2cnc(NCc3ccccc3)nc2)c1 | –
53 | 29 | 28 | 2.5 | – | O=C(c1ccccc1)c1cnc(NCc2cccnc2)nc1 | –
52 | < 8 | 1.7 | -0.4 | 12700 | N#C[C@@H]1CCCN(C(=O)c2cnc(NC3(c4cncnc4)CC3)nc2)C1 | –
0.11 | < 13 | 14 | 0.6 | 1200 | CC(C)(Nc1ncc(C(=O)N2CC3(CCOCC3)C2)cn1)c1cnccn1 | IC50 (Pantetheinase [10]): 0.41 nM; IC50 (Pantetheinase [11]): 0.88 nM; CLint [12]: < 3.5 µL/min/1e6 cells; CLint [13]: 25.8 µL/min/1e6 cells; CLint [14]: 1.66 µL/min/1e6 cells
0.06 | 18 | 17 | 0.6 | 3600 | CC(C)(Nc1ncc(C(=O)N2CCC3(CCOCC3)C2)cn1)c1cnccn1 | –
33 | 16 | 23 | 1.2 | – | N#Cc1cccc(C(=O)c2cnc(NCc3cncnc3)nc2)c1 | –
– | < 8 | 9 | 0 | 7400 | O=C(c1cnc(NCc2cnccn2)nc1)N1CC2(CCOCC2)C1 | –
0.6 | < 8 | 16 | 0.2 | 40 | C[C@H](Nc1ncc(C(=O)N2CC3(CCOCC3)C2)cn1)c1cnccn1 | –
– | < 8 | < 0.2 | -3 | 1300 | O=C(c1cnc(NC2(c3cncnc3)COC2)nc1)N1CCC2(CCOCC2)C1 | –
– | – | – | – | – | O=C(O)c1cc(/N=N/c2ccc(S(=O)(=O)Nc3ccccn3)cc2)ccc1O | Activity (Mus musculus [15]): Active; Activity (Mus musculus [16]): inactive; Activity (Mus musculus [17]): Active
– | < 10 | 2 | 0 | 1020 | O=C(c1cnc(NC2(c3cncnc3)CC2)nc1)N1CCC2(CCOCC2)C1 | –
1100 | < 8 | 0.6 | -1 | – | CS(=O)(=O)[C@H]1CCCN(C(=O)c2cnc(NC3(c4cncnc4)CC3)nc2)C1 | –
– | 32 | 8 | 2 | – | O=C(c1cnc(NC2(c3cncnc3)CCC2)nc1)N1CCC2(CCOCC2)C1 | –
